Assay results: patent US20240368133A1, “Compounds for the Treatment of Pain, in Particular, Neuropathic Pain, and/or Other Diseases or Disorders that are Associated with AT2R and/or AT2R Mediated Signaling” (Confo Therapeutics N.V., priority 2021, published 2024)
≈ marks a conversion by molar mass, not a printed value. Read-outs that look alike come from different tables or passages of the source.

Columns and labels:
Kinetic solubility = type: physicochemical; conditions: kinetic from dmso stock
Method: Starting from a 20 mM stock solution of test compound in 100% DMSO, dilutions were prepared to a theoretical concentration of 400 μM in duplicates in phosphate-buffered saline pH 7.4 (PBS) (138 mM NaCl, 2.7 mM KCl, 10 mM K-phosphate) and 100 mM citrate buffer pH 3.0 with 2% final DMSO.
The experimental compound dilutions in PBS and citrate buffer were further allowed to equilibrate at 25° C. on a thermostatic orbital shaker for two hours and then centrifuged at 14000 rpm, 5 min and filtered through HTS filter plates using a vacuum manifold. The filtrates of test compounds were diluted 2-fold with acetonitrile with 2% DMSO before measuring. In parallel, compound dilutions in 50% acetonitrile/buffer were prepared to the theoretical concentrations of 0 μM (blank), 100 μM, 200 μM and 400 μM with 2% final DMSO to generate calibration curves.
Ondansetron (Sigma Aldrich USA, cat #03639) was used as a reference to control proper assay performance. 200 μl of each sample were transferred to a 96-well plate and solubility was measured in a 200-550 nm range (in steps of 5 nm). The measurements were performed using a Spectra Max Plus reader in UV-Vis mode. Acquisition and analysis of the data were performed using SoftMax Pro v.5.4 (Molecular Devices) and Excel 2010 data analysis software. Proper absorbance wavelengths for calculations were selected for each compound manually based on absorbance maximums (absolute absorbance unit values for the minimum and maximum concentration points within 0-3 OD range). Each of the final datasets was additionally visually evaluated by the operator and goodness of fit (R2) is calculated for each calibration curve.

CYP2C9 = CYP2C9 (Homo sapiens (Human), UniProt P11712); test: CYP inhibition, CYP2C9; type: in vitro ADME; conditions: test compound at 10 μM, read-out: % Inhibition (PIN) 2C9
Sequence of CYP2C9 (P11712 whole entry): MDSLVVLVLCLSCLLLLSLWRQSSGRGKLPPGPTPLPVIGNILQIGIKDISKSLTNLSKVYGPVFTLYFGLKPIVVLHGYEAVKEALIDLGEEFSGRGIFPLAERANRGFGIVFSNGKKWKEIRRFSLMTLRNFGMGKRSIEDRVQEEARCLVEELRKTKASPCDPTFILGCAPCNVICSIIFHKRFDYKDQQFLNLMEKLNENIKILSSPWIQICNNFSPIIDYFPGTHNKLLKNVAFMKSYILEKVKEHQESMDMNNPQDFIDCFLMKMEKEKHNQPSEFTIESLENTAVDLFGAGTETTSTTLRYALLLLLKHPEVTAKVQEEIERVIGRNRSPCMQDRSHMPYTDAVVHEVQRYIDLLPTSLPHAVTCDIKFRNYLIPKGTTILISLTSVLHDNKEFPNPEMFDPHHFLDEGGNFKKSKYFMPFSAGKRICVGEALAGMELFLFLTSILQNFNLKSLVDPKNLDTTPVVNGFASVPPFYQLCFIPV
Method: The aim of this assay is to determine the inhibitory potential of a test compound. A major concern for drug-drug-interaction is cytochrome P450 inhibition. Reversible CYP inhibition was determined in human liver microsomes using specific probe substrates for human cytochrome P450 isoenzymes CYP1A2, 2C9, 2C19, 2D6 and 3A4.
The potential for CYP450 inhibition was assessed by performing in vitro inhibition studies using fluorogenic CYP450 substrates with the corresponding CYP450 enzymes and NADPH regeneration system (Vivid CYP450 Screening Kits) with some minor changes to the manufacturer's protocols. The fluorescent signal produced from reaction is directly proportional to the cytochrome P450 activity. In the cases when tested compounds interfere with the CYP450 enzyme-substrate reaction, the fluorescent signal decreases. […] After 10 minutes pre-incubation, the enzymatic reaction was initiated by the addition of a mix of NADPH and the appropriate CYP450 substrates. The plate was incubated for the desired reaction time (25 min for CYP1A2, CYP2C9, CYP2D6, and CYP3A4, 60 min for CYP2C19) after which Stop Reagent was added and fluorescence measured using SpectraMax Paradigm Multi-Mode Microplate Reader. All test points were performed in quadruplicates at concentration 10 μM (1% DMSO).
A 10 mM stock solution of test compound is prepared in methanol. This stock is further serially diluted 1:3 in methanol and then added to mixture containing 50 mM potassium phosphate buffer pH7.4, human liver microsomes (BD Gentest) and probe substrate. […]
After incubation at 37° C., the reaction (aliquot of 50 μL) is terminated with 150 μL CH3CN:MeOH (2:1) solution with internal standard (warfarin for 2C9, diclofenac for all other tested isoforms). Samples are centrifuged and the supernatant fractions analyzed by LC-MS/MS.
The instrument responses (ratio of test compound and internal standard peak areas) are referenced to those for solvent controls (assumed as 100%) in order to determine the percentage reduction in probe metabolism. Percent of control activity vs. concentration plots are generated and fitted using GraphPad Prism software to generate IC50.

[1] = Liver microsomal stability, human; type: in vitro ADME; conditions: pH 7.4, liver microsomes
Method: Microsomal incubations were carried out in 96-well plates in 5 aliquots of 40 μL each (one for each time point). Liver microsomal incubation medium contained PBS (100 mM, pH 7.4), MgCl2 (3.3 mM), NADPH (3 mM), glucose-6-phosphate (5.3 mM), glucose-6-phosphate dehydrogenase (0.67 units/ml) with 0.42 mg of liver microsomal protein per ml. Control incubations were performed replacing the NADPH-cofactor system with PBS. Test compound (2 μM, final solvent concentration 1.6%) was incubated with microsomes at 37° C., shaking at 100 rpm. Incubations were performed in duplicates. Five time points over 40 minutes have been analyzed. The reactions were stopped by adding 12 volumes of 90% acetonitrile-water to incubation aliquots, followed by protein sedimentation by centrifuging at 5500 rpm for 3 minutes. […]. Supernatants were analyzed using the HPLC system coupled with tandem mass spectrometer (API3000 PE Sciex). Acquisition and analysis of the data were performed using Analyst 1.5.2 software (PE Sciex). The elimination constant (kel), half-life (t½) and intrinsic clearance (Clint) were determined in plot of […] versus time, using linear regression analysis:
A 10 mM stock solution of compound in DMSO is diluted three-fold in DMSO. This pre-diluted compound solution is then further diluted to 2 μM in a 50 mM phosphate buffer (PBS, pH 7.4) and pre-warmed at 37° C. This compound dilution is mixed F2 with microsomal/cofactor mix at 37° C. under shaking at 300 rpm. Final reaction conditions are: 100 μL incubation volume, 1 μM of test compound (in duplicate), <0.1% DMSO, 0.5 mg/mL microsomes, 0.6 U/mL Glucose-6-phosphate-dehydrogenase (G6PDH, Roche, 10127671001), 3.3 mM MgCl2 (Sigma, M2670), 3.3 mM glucose-6-phosphate (Sigma, G-7879) and 1.3 mM NADP+ (Sigma, N-0505).
After 60 min of incubation at 300 rpm and 37° C., the reaction was stopped with 3 volumes of STOP solution (acetonitrile/MeOH 2/1 with diclofenac as internal standard). For the time point zero, 3 volumes of STOP solution were added to the compound dilution before the microsome mix was added. Six time points over 60 minutes have been analyzed. The samples of all time points were centrifuged, filtered and the supernatant analyzed by LCMS/MS (systems API4000).
The instrument responses (peak areas/IS peak area) were referenced to the zero time-point samples (considered as 100%) in order to determine the percentage of compound remaining.
Testosterone (1 μM) and Propranolol and Caffeine (1 μM) were used as reference compounds, being unstable and stable compounds respectively. If the microsomal stability values for these controls are not in the range determined by the historical data, the assay is not validated. The solubility of the compound in the final test concentration in 50 mM buffer pH 7.4 is checked by microscope to indicate whether precipitation is observed or not. If a precipitate is observed, no data of microsomal stability is generated.

[2] = aqueous buffer, kinetic solubility, phosphate-buffered saline pH 7.4, 2% DMSO, 25° C., two hours, read-out: PBS solubility, pH 7.4
[3] = citrate buffer, 25 °C, pH 3, aqueous buffer, read-out: Citrate buffer solubility, pH 3.0

CC(C)Cc1cc(F)c(-c2nn[nH]n2)c(N2CCN(Cc3cccnn3)C(C)C2)c1 (stereo not drawn) [Compound A-173, 3-[[4-[3-fluoro-5-isobutyl-2-(2H-tetrazol-5-yl)phenyl]-2-methyl-piperazin-1-yl]methyl]pyridazine] showed a solubility at 2 h (Kinetic solubility; [2]) of 376 µM (≈ 154 µg/mL), a solubility at 2 h (Kinetic solubility; [3]) of 356 µM (≈ 146 µg/mL) and an inhibition at 10 µM (CYP2C9) of 17.2%. For the same compound, the microsomal CLint [1] was 4 µL/min/mg.

In the case of CC(C)Cc1cc(F)c(-c2nn[nH]n2)c(N2CCN(Cc3cccnn3)[C@@H](C)C2)c1 [Compound A-174, 3-[[(2S)-4-[3-fluoro-5-isobutyl-2-(2H-tetrazol-5-yl)phenyl]-2-methyl-piperazin-1-yl]methyl]pyridazine], the solubility at 2 h (Kinetic solubility; [2]) is reported as 385 µM (≈ 158 µg/mL), the solubility at 2 h (Kinetic solubility; [3]) is reported as 356 µM (≈ 146 µg/mL) and the inhibition at 10 µM (CYP2C9) is reported as 20.9%. For the same compound, the microsomal CLint [1] was < 6.6 µL/min/mg.

In the case of CCC1CN(c2cc(CC(C)C)cc(F)c2-c2nn[nH]n2)CCN1Cc1cccnn1 (stereo not drawn) [Compound A-178, 3-[[2-ethyl-4-[3-fluoro-5-isobutyl-2-(2H-tetrazol-5-yl)phenyl]piperazin-1-yl]methyl]pyridazine], the solubility at 2 h (Kinetic solubility; [2]) is reported as ≥ 400 µM, the solubility at 2 h (Kinetic solubility; [3]) is reported as ≥ 400 µM and the inhibition at 10 µM (CYP2C9) is reported as 45.6%. The microsomal CLint [1] was 20 µL/min/mg.
